From PubChem BioAssay (NCI)
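Briefly, cells in 96-well plates were exposed to five compound concentrations for 48 h, and endpoints were estimated by linear interpolation. GI50 = concentration required for 50% inhibition of growth. Definition used: TGI = concentration required for complete inhibition of growth.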

Experiments:
Assay in all cases: DTP human tumour cell line panel, 48 h
OVCAR-5 ovarian = system: OVCAR-5 ovarian
IGROV1 ovarian = system: IGROV1 ovarian
NCI-H23 lung = system: NCI-H23 lung
SF-295 CNS = system: SF-295 CNS
A549 NSCLC = system: A549 NSCLC
K-562 leukemia = system: K-562 leukemia
UO-31 renal = system: UO-31 renal
NCI-H460 lung = system: NCI-H460 lung
CAKI-1 renal = system: CAKI-1 renal
U251 CNS = system: U251 CNS

SMILES | TGI (OVCAR-5 ovarian) [µM] | TGI (IGROV1 ovarian) [µM] | TGI (NCI-H23 lung) [µM] | TGI (SF-295 CNS) [µM] | TGI (A549 NSCLC) [µM] | TGI (K-562 leukemia) [µM] | TGI (UO-31 renal) [µM] | TGI (NCI-H460 lung) [µM] | TGI (CAKI-1 renal) [µM] | TGI (U251 CNS) [µM] | GI50 (OVCAR-5 ovarian) [µM] | GI50 (IGROV1 ovarian) [µM] | GI50 (NCI-H23 lung) [µM] | GI50 (SF-295 CNS) [nM] | GI50 (A549 NSCLC) [µM] | GI50 (K-562 leukemia) [nM] | GI50 (UO-31 renal) [µM] | GI50 (NCI-H460 lung) [µM] | GI50 (CAKI-1 renal) [nM] | GI50 (U251 CNS) [nM]
Nc1c(-c2cn(Cc3ccccc3)c3ccccc23)[n+]([O-])c2ccccc2[n+]1[O-] | > 100 | > 100 | 93.6 | 88.7 | > 100 | > 100 | 38.8 | > 100 | 68 | > 100 | – | – | – | – | – | – | – | – | – | –
Nc1ccccc1NC(=O)c1ccc(CNc2nccc(-c3cccnc3)n2)cc1 | > 48 | > 27.7 | > 68.1 | > 100 | > 47.6 | > 100 | > 77.2 | 97 | – | – | 0.55 | 2.36 | 1.4 | 722 | 1.35 | 358 | 0.978 | 1.15 | 323 | 1120
O=C(/C=C/c1ccco1)c1cc(F)c(Cl)cc1Cl | 48.9 | 41 | > 100 | 65.9 | 70.7 | > 100 | 34 | 72.4 | > 100 | 46 | 22.5 | 17.2 | 31 | 24300 | 22 | 30200 | 17.1 | 24.2 | 32700 | 19300
COC(=O)C1=Cc2cc(OC)c(OC)c(OC)c2[C@H](c2cc(OC)c(OC)c(OC)c2)C1C(=O)OC (stereo partly drawn) | > 100 | > 100 | > 100 | > 100 | > 100 | > 100 | > 100 | > 100 | > 100 | > 100 | – | – | – | – | – | – | – | – | – | –
CCOC(=O)C1=C(C)N=c2s/c(=C\c3ccccc3O)c(=O)n2C1c1ccc(OC)c2ccccc12 (stereo not drawn) | > 100 | 75 | 30.7 | 30 | 16.7 | 67.2 | 33.1 | 39.5 | 25.9 | 6.58 | 17.1 | 21.4 | 7.72 | 13300 | 3.88 | 11400 | 15.6 | 8.92 | 10000 | 2350
Cc1ccc(Cl)cc1Nc1nc(C(F)(F)F)ccc1C(=O)N/N=C/c1cccnc1 | 17.1 | 15.8 | 20.3 | 4.51 | 12.4 | > 39 | 16.2 | 11.1 | 9.02 | 11.7 | 3.44 | 4.22 | 5.6 | 1380 | 3.32 | 1710 | 3.51 | 2.76 | 2140 | 2140
CC1=C(O)c2cn(C)cc2C(=O)C1=O | > 100 | > 100 | > 100 | > 100 | > 100 | > 100 | > 100 | > 100 | > 100 | > 100 | – | – | – | – | – | – | – | – | – | –
COc1ccccc1NC(=O)C1=C(C)NC(C)=C(C(=O)Nc2ccccc2OC)C1C1=CC=COC1 | > 100 | > 100 | > 100 | 40.7 | > 100 | 26 | > 100 | 16.3 | 56.8 | 77.1 | – | – | – | – | – | – | – | – | – | –
CN(C)c1ccc(/C=C/c2ccnc3c(O)cccc23)cc1 | > 100 | > 100 | > 100 | > 100 | > 100 | > 100 | > 22.7 | > 100 | > 74.4 | > 100 | 6.66 | 0.389 | 0.511 | 1060 | 0.376 | 364 | 0.247 | 0.363 | 401 | 338
CN1CCC(COc2cnc(-c3cccc(Cn4nc(-c5cccc(C#N)c5)ccc4=O)c3)nc2)CC1 | 27.5 | 25.2 | 21.6 | 16.5 | 14.7 | 4.32 | 5.79 | 12.3 | 13.8 | 7.68 | 7.69 | 6.8 | 4.93 | 771 | 3.52 | 1740 | 2.26 | 3.58 | 3150 | 2430
Cc1cc([N+](=O)[O-])ccc1NC(=O)C(=O)C(C(=O)c1ccccc1-c1ccccc1)C1OC(=O)c2ccccc21 (stereo not drawn) | 28.9 | 67.8 | 80 | 50.9 | > 100 | 89.3 | 31.3 | 38.2 | 59.5 | 26 | – | – | – | – | – | – | – | – | – | –
O=C(O)/C=C/C(=O)N1Cc2cc3ccccc3nc2C1 | > 100 | > 100 | > 100 | > 100 | > 100 | > 100 | > 100 | > 100 | > 100 | > 100 | – | – | – | – | – | – | – | – | – | –
O=C(c1ccco1)c1nc2cc(C(F)(F)F)ccc2nc1C(F)(F)F | > 100 | > 100 | > 100 | > 100 | > 100 | > 100 | > 100 | > 100 | > 100 | > 100 | > 100 | > 100 | > 100 | > 100000 | > 100 | > 100000 | > 100 | > 100 | > 100000 | > 100000
COc1ccc(C(=O)Nc2ncc(Cc3cccc(Cl)c3)s2)cc1OC | > 100 | > 100 | > 100 | 3.64 | > 100 | > 100 | > 100 | > 100 | > 100 | > 100 | 1.25 | 0.525 | 2.51 | 60.7 | 0.631 | – | 0.953 | 0.0611 | 309 | 505
CN(C)c1ccc(/C=C/C(=O)[O-])cc1.CN(C)c1ccc(/C=C/C(=O)[O-])cc1.[Cu+2] | 60.3 | > 100 | > 100 | > 100 | > 100 | > 100 | > 100 | > 100 | > 100 | > 100 | – | – | > 100 | – | – | – | – | – | – | 37200
CC(=O)Nc1ccc(/C=c2\sc3nnc(CCC(=O)Nc4ccccc4Cl)n3c2=O)cc1 | > 100 | > 100 | > 100 | 38.9 | > 100 | 68.3 | > 100 | > 10 | > 100 | 31.8 | – | – | – | – | – | – | – | – | – | –
CCOC(=O)[C@@H](C)C[C@H](Cc1ccccc1)NC(=O)c1nc([C@@H](C[C@H](C(C)C)N(C)C(=O)[C@@H](NC(=O)[C@H]2CCCCN2C)C(C)C)OC(C)=O)sc1CCOCc1ccccc1 | 4.11 | 2.81 | 5.6 | 1.36 | 2.17 | 1.92 | 2.24 | 1.4 | 2.18 | 1.62 | 0.246 | 0.0995 | 0.188 | 49.9 | 0.101 | 35.8 | 0.586 | 0.0425 | 128 | 71.6
CCOC(=O)c1ccc(Nc2sc(C(=O)c3ccc(Br)cc3)c(N)c2C#N)cc1 | > 100 | > 100 | > 100 | > 100 | > 100 | > 100 | > 100 | > 100 | > 100 | > 100 | 5.66 | – | 14.3 | 478 | 1.06 | 513 | 1.93 | 0.924 | 1730 | 1490
COc1ccc2c(c1)[n+]([O-])c(-c1ccc([N+](=O)[O-])cc1)c(N)[n+]2[O-] | > 100 | > 100 | > 100 | > 100 | > 100 | > 100 | > 100 | > 100 | > 100 | > 100 | – | – | – | – | – | – | – | – | – | –
Cc1cccc(-c2[nH]ncc2-c2ccc3ncccc3n2)n1 | > 25 | > 25 | > 25 | > 25 | > 25 | > 25 | > 25 | > 25 | > 25 | > 25 | 9.82 | 13 | 14.2 | 13700 | 9.27 | > 25000 | 6.17 | 8.76 | > 19000 | 9540
CCOC(=O)c1ccccc1OC(=O)NNc1ccccc1 | > 100 | > 100 | > 100 | > 37.4 | > 100 | > 100 | > 100 | > 100 | > 100 | > 100 | 5.34 | 33.9 | 30.3 | 333 | 0.874 | 225 | 0.535 | 0.442 | 377 | > 35600
CC1(C)N=C(N)N=C(N)N1c1ccc(CCCCc2ccccc2)c(Cl)c1 | 22.4 | 2.34 | 10.2 | 14.6 | 15 | > 51.2 | 25.6 | 4.04 | 16.8 | 1.83 | 0.331 | < 0.0185 | 0.0543 | 45.7 | < 0.01 | 25.6 | 4.89 | < 0.0129 | 869 | < 10
C=C(C)[C@@H]1CC[C@]2(COCCC#N)CC[C@]3(C)[C@H](CC[C@@H]4[C@@](C)(CCCNCCC#N)[C@H](C(=C)C)CC[C@]43C)[C@@H]12 | 44.1 | > 50 | > 50 | > 50 | > 50 | 31.6 | > 50 | > 50 | 15.6 | 47.1 | 13.4 | 13.1 | 16.5 | > 50000 | 34.4 | 8940 | 10.7 | 13.2 | 7130 | 13900
COc1cc(/C=C2\C[C@H]3[C@@H]4CC=C5C[C@@H](O)CC[C@]5(C)[C@H]4CC[C@]3(C)[C@H]2O)ccc1OCCN1CCCC1 | 19.8 | > 50 | 26 | 37 | 21.6 | 16.5 | 22.4 | 36.2 | 22.1 | 40.4 | 8.57 | 17.5 | 11.5 | 13600 | 10.9 | 6860 | 10.3 | 13.5 | 10200 | 12800
O=C1CC(c2c(-c3ccccc3)[nH]c3ccccc23)C(=O)N1 (stereo not drawn) | > 100 | > 100 | > 100 | > 100 | > 100 | > 100 | > 100 | > 100 | > 100 | > 100 | – | – | – | – | – | – | – | – | – | –
Cc1ccc(NC(=O)c2ccc(CN3CCN(C)CC3)cc2)cc1Nc1nccc(-c2cccnc2)n1 | 39.5 | 45.7 | 38.2 | 38.3 | 89.3 | 3.72 | 53.8 | 37.1 | 67 | 45.1 | 2.08 | 20.5 | 15 | 17800 | 25.9 | 41.4 | 22.3 | 16.8 | 30300 | 17700
COC(=O)C(Cc1nc2ccccc2[nH]c1=O)/C(=N\NC(C)(C)C)C(=O)Nc1c(C)cc(Br)cc1C (stereo not drawn) | > 100 | > 100 | 78 | > 100 | > 100 | > 100 | > 100 | > 100 | 88.9 | 49.9 | – | – | – | – | – | – | – | – | – | –
Cn1cc(C2=C(c3ccccc3[N+](=O)[O-])C(=O)NC2=O)c2ccccc21 | > 25 | > 19.5 | > 25 | > 25 | > 21.8 | > 25 | > 20.5 | > 25 | > 20.8 | > 25 | 8.64 | 6.9 | 7.25 | 1440 | 4.09 | 2140 | 5.28 | 4.85 | 3870 | 1770
Cc1c(O)c2ccccc2oc1=O | > 100 | > 100 | > 100 | > 100 | > 100 | > 100 | > 100 | > 100 | > 100 | > 100 | – | – | – | – | – | – | – | – | – | –
